In patent US20200157088A1, “BENZENE FUSED HETEROCYCLIC COMPOUND AND USE THEREOF” (TAIWANJ PHARMACEUTICALS CO., LTD., priority 2017, published 2020):
Read-outs that look alike come from different tables or passages of the source.

Target: T1, autotaxin (Homo sapiens, UniProt Q13822)
T1 construct: purchased Cayman 10803
Assay: Autotaxin inhibitor screening assay (choline release from LPC)
Assay type: biochemical
Experimental: Autotaxin activity was measured by choline release from LPC in presence or absence of compound.
Twenty (20) ng autotaxin (10803, Cayman, MI, USA) was incubated with 100 μM 14:0 LPC (855575P, Avanti, AL, USA) in a final volume of 100 μL buffer containing 50 mM Tris pH 8.0, 0.01% Triton X-100, 50 mM CaCl2, 1 unit/ml choline oxidase, 2 unit/ml HRP, 2 mM homovanilic acid (HVA). The relative amount of released choline was measured by HVA fluorescence in a 96-well plate. Fluorescent intensity was determined at λex/λem=320/450 nm every 60 seconds for 90 minutes with a SpectraMax i3 (Molecular Devices, CA, USA). Data analysis was performed using GraphPad Prism (GraphPad, La Jolla Calif., USA).
Inhibition %=[1−SlopeTA−SlopeBlank)/(Slopevehicle−SlopeBlank)]×100%

[1] = inhibition of autotaxin enzyme activity at 1 μM compound, 100 μM 14:0 LPC, read-out: Inhibition

inhibition at 1 µM [1] [%]	SMILES	inhibition at 1 µM [%]
> 80	CN(C(=O)OCc1cc(Cl)cc(Cl)c1)c1csc2ccc(C3=CCN(C(=O)CN4C(=O)CSC4=S)CC3)cc12 [Compound 85]	–
> 80	CN(C(=O)OCc1cc(Cl)ccc1Cl)C1CCc2ccc(C3=CCN(C(=O)CN4C(=O)CSC4=S)CC3)cc21 (centres unmarked) [Compound 96]	–
> 80	CN(C(=O)OCc1cc(Cl)cc(Cl)c1)C1CCc2ccc(C3=CCN(C(=O)CN4C(=O)CSC4=S)CC3)cc21 (centres unmarked) [Compound 9, 3,5-dichlorobenzyl methyl(6-(1-(2-(4-oxo-2-thioxothiazolidin-3-yl)acetyl)-1,2,3,6-tetrahydropyridin-4-yl)-2,3-dihydro-1H-inden-1-yl)carbamate]	–
> 80	CN(C(=O)OCc1cc(Cl)cc(Cl)c1)c1coc2ccc(N3CCN(C(=O)CN4C(=O)CSC4=S)CC3)cc12 [Compound 66, 3,5-dichlorobenzyl methyl(5-(4-(2-(4-oxo-2-thioxothiazolidin-3-yl)acetyl)piperazin-1-yl)benzofuran-3-yl)carbamate]	–
> 80	CN(C(=O)OCc1cc(Cl)cc(Cl)c1)C1CCc2ccc(C3=CCN(C(=O)CNS(C)(=O)=O)CC3)cc21 (centres unmarked) [Compound 29]	–
50 to 80	CN(C(=O)OCc1cc(Cl)cc(Cl)c1)C1CCc2ccc(C3=CCN(C(=O)CCN4C(=O)CSC4=S)CC3)cc21 (centres unmarked) [Compound 28]	–
> 80	CN(C(=O)OCc1cc(Cl)cc(Cl)c1)c1coc2ccc(C3=CCN(C(=O)CN4C(=O)CSC4=S)CC3)cc12 [Compound 69, 3,5-dichlorobenzyl methyl(5-(1-(2-(4-oxo-2-thioxothiazolidin-3-yl)acetyl)-1,2,3,6-tetrahydropyridin-4-yl)benzofuran-3-yl)carbamate]	–
50 to 80	CCN(C(=O)OCc1cc(Cl)cc(Cl)c1)c1noc2ccc(C3=CCN(C(=O)CN4C(=O)CSC4=S)CC3)cc12 [Compound 129]	–
> 80	COc1cc(C2=CCN(C(=O)CN3C(=O)CSC3=S)CC2)cc2c(N(C)C(=O)OCc3cc(C(F)(F)F)cc(C(F)(F)F)c3)coc12 [Compound 112]	–
> 80	CC1Cc2ccc(C3=CCN(C(=O)CN4C(=O)CSC4=S)CC3)cc2C1N(C)C(=O)OCc1cc(Cl)cc(Cl)c1 (centres unmarked) [Compound 117]	–
> 80	CCN(C(=O)OCc1cc(C(F)(F)F)cc(C(F)(F)F)c1)c1c(C)oc2ccc(C3=CCN(C(=O)CN4C(=O)CSC4=S)CC3)cc12 [Compound 105]	–
> 80	Cc1cc(COC(=O)N(C)C2CCc3ccc(C4=CCN(C(=O)CN5C(=O)CSC5=S)CC4)cc32)cc(C(F)(F)F)c1 (centres unmarked) [Compound 94]	–
50 to 80	O=C(Nc1noc2ccc(C3=CCN(C(=O)CN4C(=O)CSC4=S)CC3)cc12)OCc1cc(C(F)(F)F)cc(C(F)(F)F)c1 [Compound 131]	–
> 80	CN(C(=O)OCc1cc(Cl)cc(Cl)c1)C1CCc2ccc(C3=CCN(C(=O)CN(C)S(C)(=O)=O)CC3)cc21 (centres unmarked) [Compound 30]	–
50 to 80	Cc1c(N(C)C(=O)OCc2cc(C(F)(F)F)cc(C(F)(F)F)c2)c2cc(C3=CCN(C(=O)CN4C(=O)CSC4=S)CC3)ccc2n1C [Compound 109]	–

The remaining lines, values behind:

SMILES	inhibition at 1 µM [1] [%]	inhibition at 1 µM [%]
CN(c1nc(-c2ccc(Cl)cc2)c(C#N)s1)C1CCc2ccc(C3=CCN(CC(=O)N4CC(O)C4)CC3)cc21 (centres unmarked) [Compound 58, 4-(4-chlorophenyl)-2-((6-(1-(2-(3-hydroxyazetidin-1-yl)-2-oxoethyl)-1,2,3,6-tetrahydropyridin-4-yl)-2,3-dihydro-1H-inden-1-yl)(methyl)amino)thiazole-5-carbonitrile]	< 50	–
N#Cc1cn(Cc2coc3ccc(C4=CCN(CC(=O)N5CC(O)C5)CC4)cc23)nc1-c1ccc(Cl)cc1 [Compound 82, 3-(4-chlorophenyl)-1-((5-(1-(2-(3-hydroxyazetidin-1-yl)-2-oxoethyl)-1,2,3,6-tetrahydropyridin-4-yl)benzofuran-3-yl)methyl)-1H-pyrazole-4-carbonitrile]	< 50	–
CN(C(=O)OCc1cc(Cl)cc(Cl)c1)C1CCc2ccc(N3CCN(C(=O)CN4CCOCC4)CC3)cc21 (centres unmarked) [Compound 34, 3,5-dichlorobenzyl methyl(6-(4-(2-morpholinoacetyl)piperazin-1-yl)-2,3-dihydro-1H-inden-1-yl)carbamate]	50 to 80	–
CN(C(=O)OCc1cc(Cl)cc(Cl)c1)C1CCc2ccc(C3=CCN(C(=O)C(=O)N4CCOCC4)CC3)cc21 (centres unmarked) [Compound 23]	50 to 80	–
CN(c1nc(-c2ccccc2)cs1)C1CCc2ccc(N3CCN(CC(=O)N4CC(O)C4)CC3)cc21 (centres unmarked) [Compound 44]	–	< 50
CN(c1nc(-c2ccc(F)cc2)c(C#N)s1)C1CCCc2ccc(N3CCN(CC(=O)N4CC(O)C4)CC3)cc21 (centres unmarked) [Compound 53]	< 50	–
Cc1oc2ccc(C3=CCN(C(=O)CS(C)(=O)=O)CC3)cc2c1N(C)C(=O)OCc1cc(C(F)(F)F)cc(C(F)(F)F)c1 [Compound 103]	50 to 80	–
CN(c1nc(-c2ccc(F)cc2)cs1)C1CCc2ccc(N3CCN(CC(=O)N4CC(O)C4)CC3)cc21 (centres unmarked) [Compound 43, 2-(4-(3-((4-(4-fluorophenyl)thiazol-2-yl)(methyl)amino)-2,3-dihydro-1H-inden-5-yl)piperazin-1-yl)-1-(3-hydroxyazetidin-1-yl)ethan-1-one]	< 50	–
CN(C(=O)OCc1cc(Cl)cc(Cl)c1)C1CCc2ccc(C3=CCN(CC(=O)N4CCOCC4)CC3)cc21 (centres unmarked) [Compound 10]	50 to 80	–
CN(C(=O)OCc1cc(Cl)cc(Cl)c1)C1CCc2ccc(C3=CCN(C(=O)N4CCN(S(C)(=O)=O)C4=O)CC3)cc21 (centres unmarked) [Compound 139]	< 50	–
CN(C(=O)CCc1cc(Cl)cc(Cl)c1)C1CCc2ccc(C3=CCN(C(=O)CCS(C)(=O)=O)CC3)cc21 (centres unmarked) [Compound 138]	50 to 80	–
CCC1Cc2ccc(C3=CCN(CC(=O)N4CC(O)C4)CC3)cc2C1N(C)c1nc(-c2cc(Cl)cc(Cl)c2)c(C#N)s1 (centres unmarked) [Compound 61]	< 50	–
CCOC(=O)N1CCN(C(=O)CN2CC=C(c3ccc4c(c3)C(N(C)C(=O)OCc3cc(Cl)cc(Cl)c3)CC4)CC2)CC1 (centres unmarked) [Compound 15]	< 50	–
CCC1Oc2ccc(C3=CCN(C(=O)CN4CCOCC4)CC3)cc2C1N(C)C(=O)OCc1cc(Cl)cc(Cl)c1 (centres unmarked) [Compound 120]	–	< 50
